Assay results: article PMC7037232, “Effect of Cholesterol on the Organic Cation Transporter OCTN1 (SLC22A4)” (International Journal of Molecular Sciences, 2020)
Values joined by “and” are separate entries in the source; they are usually repeats but may differ in a detail not shown here. Equal values may be shown once.

Columns and labels:
[1] = Enzymatic quantitation of cholesterol/CHS in proteoliposome lipids; conditions: proteoliposomes with initial 8.3% CHS, 10 mM MβCD
Method: (§1) Proteoliposomes reconstituted with the recombinant OCTN1 and added or not with CHS were incubated with MβCD as above described and then, MβCD was removed by chromatography on Sephadex G-75 column as described in Section 4.7.
Quantitation was performed using the Cholesterol Quantitation Kit MAK043 by Merck Life Science s.r.l., 20149 Milan, Italy,). Assay was performed in the presence of cholesterol esterase with absorbance measured on a microplate reader at 570 nm.

[2] = target: T1, native human OCTN1 (Homo sapiens, UniProt Q9H015); assay: [14C]-TEA uptake in proteoliposomes reconstituted with native OCTN1 extracted from HeLa cells; format: biochemical; conditions: 0.1 mM [14C]-TEA
T1 construct: the native human OCTN1, the protein extracted from HeLa cells was exploited; endogenous in cells; host or cells: HeLa cells (Triton X-100 extract reconstituted in proteoliposomes)
T1 sequence (Q9H015 1-551): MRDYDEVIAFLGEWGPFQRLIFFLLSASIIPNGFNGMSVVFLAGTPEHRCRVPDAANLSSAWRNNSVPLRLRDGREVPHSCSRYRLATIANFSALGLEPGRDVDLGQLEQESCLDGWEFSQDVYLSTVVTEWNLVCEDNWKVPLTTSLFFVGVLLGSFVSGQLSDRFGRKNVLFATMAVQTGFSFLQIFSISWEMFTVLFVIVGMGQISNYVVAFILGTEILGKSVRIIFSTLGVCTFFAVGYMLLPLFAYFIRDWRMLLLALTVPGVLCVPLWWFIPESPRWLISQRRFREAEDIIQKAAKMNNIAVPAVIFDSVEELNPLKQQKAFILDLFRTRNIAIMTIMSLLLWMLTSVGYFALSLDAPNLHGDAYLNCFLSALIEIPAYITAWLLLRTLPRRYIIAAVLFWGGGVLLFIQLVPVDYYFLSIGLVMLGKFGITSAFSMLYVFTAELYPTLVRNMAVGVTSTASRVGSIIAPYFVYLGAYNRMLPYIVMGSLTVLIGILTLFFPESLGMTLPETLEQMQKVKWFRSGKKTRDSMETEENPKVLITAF
Method: HeLa cells pellet was treated with 150 µL TX-100 10%. After vortexing cells have been incubated 30 min on ice and then centrifuged 10 min 12.000× g at 4 °C. The cell membrane extract (supernatant) was used for the reconstitution. 30 µL supernatant were included to the reconstitution mixture containing 120 µL 10% egg yolk phospholipids in the form of sonicated liposomes prepared as previously described, 80 µL 10% Triton X-100 solution, 16 mM ATP, 7 µL of 500 mM Tris/HCl (pH 7.5) in a final volume of 700 μL.
Each HeLa cell sample or HeLa cell extract was incubated with 10 mM MβCD for 90 min at 37 °C under stirring. Then, the respective extracts were reconstituted in proteoliposomes.
Proteoliposomes (550 µL) were passed through a Sephadex G-75 column (0.7 cm diameter x 15 cm height) pre-equilibrated with 5 mM Tris/HCl (pH 7.5). […] Finally, each sample of proteoliposomes (100 µL) was passed through a Sephadex G-75 column (0.6 cm diameter × 8 cm height) in order to separate the external from the internal radioactivity. Liposomes were eluted with 1 mL of 50 mM NaCl and collected in 4ml of scintillation mixture, vortexed, and counted. […] For kinetic experiments the initial rate of transport expressed as nmol ⋅ min^−1 ⋅ mg protein^−1, was measured by stopping the reaction after 10 min, i.e., within the initial linear range of [^14C]-TEA or [^3H]-acetylcholine uptake into the proteoliposomes. […]

[3] = target: T2, recombinant OCTN1 (Homo sapiens, UniProt Q9H015); assay: [14C]-TEA uptake in proteoliposomes reconstituted with recombinant OCTN1 over-expressed in E. coli; format: biochemical; conditions: for IC50: [14C]-TEA uptake 0.1 mM, 20 min
T2 construct: made in house; host or cells: E. coli
T2 sequence (Q9H015 1-551): T1 sequence (Q9H015 1-551)
Method: (§2) OCTN1 over-expressed in E. coli and purified as previously described was used for reconstitution in liposomes. The composition of the initial mixture used for reconstitution (except when differently indicated) was 200 µL of the purified protein (5 µg protein in 0.05% DDM), CHS at the indicated concentrations solubilized in 240 µL of 20 mM Tris/HCl (pH 7.5) and 5% Triton X-100 or buffer and Triton X-100 alone in the case of samples without CHS, 120 µL of 10% egg yolk phospholipids in the form of sonicated liposomes prepared as previously described, 16 mM ATP and (where indicated) in a final volume of 700 μL. The purified OCTN1 inserted in liposomal membrane by removing the detergent from mixed micelles containing detergent, protein, and phospholipids with Amberlite XAD-4 in a batch-wise procedure. Where indicated, proteoliposome internal volume was measured using a colorimetric phosphate method. In detail, 30 mM dipotassium phosphate (K2HPO4) was added to the reconstitution mixture. After elution from Sephadex G75 pre-equilibrated with 5 mM Tris/HCl (pH 7.5), 100 µL of sample were used for the colorimetric reaction. A solution containing 150 µL of 10% SDS was used to solubilize liposomal membranes. Then, 700 µL of a solution prepared with 10 mM hexammonium heptamolybdate 4-hydrate, 0.3 mM H2SO4 and 0.1 mM FeSO4 was added starting an incubation of 30 min in the dark. At the end, absorbance from each sample was measured at 578 nm. Internal volume in µL was derived from nmol of phosphate incorporated in liposomes.
as §1
(§3) Proteoliposomes (550 µL) were passed through a Sephadex G-75 column (0.7 cm diameter x 15 cm height) pre-equilibrated with 5 mM Tris/HCl (pH 7.5). The first 550 µL turbid eluate was collected and divided in aliquots (samples) of 100 µL each. Transport was started by adding 0.1 mM [^14C]-TEA or [^3H]-acetylcholine to the proteoliposome samples and stopped by adding 0.5 mM HgCl2 at the desired time interval. In control samples, the inhibitor was added at time zero according to the inhibitor stop method. Finally, each sample of proteoliposomes (100 µL) was passed through a Sephadex G-75 column (0.6 cm diameter × 8 cm height) in order to separate the external from the internal radioactivity. Liposomes were eluted with 1 mL of 50 mM NaCl and collected in 4ml of scintillation mixture, vortexed, and counted. The experimental values were corrected by subtracting the respective controls. The uptake time course data were interpolated using a first order rate equation from which rate constants were derived as the product of k (the first order rate constant) and the transport at the equilibrium. Data from dose-response experiments were fitted into an IC50 equation. For kinetic experiments the initial rate of transport expressed as nmol ⋅ min^−1 ⋅ mg protein^−1, was measured by stopping the reaction after 10 min, i.e., within the initial linear range of [^14C]-TEA or [^3H]-acetylcholine uptake into the proteoliposomes. Kinetic constants were estimated from interpolation of the experimental data into a Lineweaver–Burk equation. The Grafit (version 5.0.3) software was used for calculations.

[4] = target: T2, recombinant OCTN1; assay: Immunodetection of OCTN1 incorporated in proteoliposomes (anti-His antibody)
[5] = target: T2, recombinant OCTN1; assay: [3H]-acetylcholine uptake in proteoliposomes reconstituted with recombinant OCTN1 over-expressed in E. coli; format: biochemical; conditions: for IC50: [3H]-acetylcholine uptake 0.1 mM, 20 min
Method: as §2, §3

[6] = substrate: CC(=O)OCC[N+](C)(C)C; assay: as above; format: biochemical, human; conditions: other: in the absence of CHS; pH 7.5
Method: OCTN1 over-expressed in E. coli and purified as previously described was used for reconstitution in liposomes. The composition of the initial mixture used for reconstitution (except when differently indicated) was 200 µL of the purified protein (5 µg protein in 0.05% DDM), CHS at the indicated concentrations solubilized in 240 µL of 20 mM Tris/HCl (pH 7.5) and 5% Triton X-100 or buffer and Triton X-100 alone in the case of samples without CHS, 120 µL of 10% egg yolk phospholipids in the form of sonicated liposomes prepared as previously described, 16 mM ATP and (where indicated) in a final volume of 700 μL. […] Where indicated, proteoliposome internal volume was measured using a colorimetric phosphate method. […] At the end, absorbance from each sample was measured at 578 nm. […]
Proteoliposomes (550 µL) were passed through a Sephadex G-75 column (0.7 cm diameter x 15 cm height) pre-equilibrated with 5 mM Tris/HCl (pH 7.5). […] Finally, each sample of proteoliposomes (100 µL) was passed through a Sephadex G-75 column (0.6 cm diameter × 8 cm height) in order to separate the external from the internal radioactivity. Liposomes were eluted with 1 mL of 50 mM NaCl and collected in 4ml of scintillation mixture, vortexed, and counted. […]

In the case of Methyl-beta-CycloDextrin [MβCD], the “reduction of the initial CHS concentration” value [1] is reported as 40%, the “decrease of the native OCTN1 activity with respect to the control” value ([2]; HeLa cell extract incubated with 10 mM MβCD prior to reconstitution) is reported as 35% and the “decrease of the native OCTN1 activity with respect to the control” value ([2]; HeLa cells incubated with 10 mM MβCD prior to solubilization) is reported as 23%. The “decrease in transport activity” value ([3]; proteoliposomes with 8.3% CHS incubated with 10 mM MβCD, 0.1 mM [14C]-TEA) was 31%.

With `CC[N+](CC)(CC)CC` [TEA, Tetraethylammonium] the Km [3] was 900 µM and 800 µM and the Vmax of transport [3] was 36.1 ± 8.6 nmol ⋅ min^−1 ⋅ mg protein^−1 and 66.6 ± 16.4 nmol ⋅ min^−1 ⋅ mg protein^−1.

With `CC(C)CCC[C@@H](C)[C@H]1CC[C@H]2[C@@H]3CC=C4C[C@@H](OC(=O)CCC(=O)O)CC[C@]4(C)[C@H]3CC[C@]12C` [CHS, Cholesteryl HemiSuccinate] the “relative concentration of immuno-stained OCTN1, normalized to 0% CHS (100%)” value ([4]; 2.1% CHS) was 109 ± 14%, the “relative concentration of immuno-stained OCTN1, normalized to 0% CHS (100%)” value ([4]; 4.2% CHS) was 104 ± 5.8% and the “relative concentration of immuno-stained OCTN1, normalized to 0% CHS (100%)” value ([4]; 8.3% CHS) was 106 ± 9.1%. The “transport of TEA relative to control (without added cholesterol)” value ([3]; 8.3% CHS (83 µg CHS/mg total lipids), 0.1 mM [14C]-TEA) was “about double the control”, the “CHS amount giving optimal transport activity” value ([3]; [14C]-tetraethylamonium uptake) was 83 µg CHS/ mg total lipids and the “transport of acetylcholine relative to control (without added cholesterol)” value ([5]; 8.3% CHS (83 µg CHS/mg total lipids), 0.1 mM [3H]-acetylcholine) was “about double the control”. For the same molecule, the “CHS amount giving optimal transport activity” value ([5]; [3H]-acetylcholine uptake) was 83 µg CHS/ mg total lipids.

`C[N+]1(C)CCOC(O)(c2ccc(-c3ccc(C4(O)C[N+](C)(C)CCO4)cc3)cc2)C1` (stereo not shown) [hemicholinium] showed an IC50 ([5]; in the absence of CHS) of 530 ± 46 µM and an IC50 ([5]; in the presence of 8.3% CHS) of 300 ± 52 µM.

Work on `CC[N+](CC)(CC)Cc1ccccc1` [TEBA, Benzyltriethylammonium] yielded an IC50 ([3]; in the absence of CHS) of 1600 ± 300 µM and an IC50 ([3]; in the presence of 8.3% CHS) of 1900 ± 700 µM.

With `Nc1ncnc2c1ncn2[C@@H]1O[C@H](COP(=O)(O)OP(=O)(O)OP(=O)(O)O)[C@@H](O)[C@H]1O` [ATP] the “effect of intraliposomal ATP on transport” value ([3]; TEA uptake, 8.3% CHS) was “stimulated the transport” and the “effect of intraliposomal ATP on transport” value ([5]; acetylcholine uptake, 8.3% CHS) was “stimulated the transport”.

`[Na+]` [Na^+] showed an IC50 ([3]; in the presence of 8.3% CHS) of 1700 ± 500 µM and an IC50 ([5]; in the presence of 8.3% CHS) of 2200 ± 200 µM.

Work on `[Cl][Hg][Cl]` [HgCl2] yielded an IC50 ([3]; in the absence of CHS) of 270 ± 50 µM and an IC50 ([3]; in the presence of 8.3% CHS) of 200 ± 30 µM.

B1: human recombinant OCTN1 (Homo sapiens) (protein)
chain: T1 sequence (Q9H015 1-551)
notes: made in house; host or cells: E. coli
In the case of B1, the Km [6] is reported as 1100 ± 370 µM and the Vmax [6] is reported as 49.3 ± 12.4 nmol ⋅ min^−1 ⋅ mg protein^−1.
